The results in this text go back to ChEMBL document CHEMBL1201862, “PubChem BioAssay data set” (2004).

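A five-concentration, 48-hour dose response in 96-well plates underlies each endpoint, interpolated linearly between surrounding concentrations. GI50 marks 50% less growth.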 The source made the active and inactive calls. Rule as the data show it: active = GI50 up to about 1.1 µM and inactive = higher.

Some test systems named below: HCT-116; OVCAR-4; COLO 205; SK-MEL-28; HL-60; SR; SW-620; LOX IMVI; NCI-H460; CCRF-CEM; MDA-N; EKVX; UACC-62; OVCAR-5; HT-29; HOP-92; ACHN; BT-549; U-251; NCI-H23.
Holding throughout (experiment): NCI anticancer screen, dose series, 48 h

Take `COc1oc(C(=O)NC2CCCCC2)c(-c2ccc(Cl)cc2)c1S(=O)(=O)c1ccccc1`: the GI50 with HCT-116 was 33.3 µM (inactive); in the assay with OVCAR-4 it was 1.7 µM (inactive); with COLO 205, 15.5 µM (inactive); in the assay on SK-MEL-28, 49.3 µM (inactive); with HL-60, 2.4 µM (inactive); in the assay with SR, 5.51 µM (inactive). For the same compound, the GI50 with SW-620 was 38.2 µM (inactive); with LOX IMVI, 2.78 µM (inactive); with NCI-H460 it was 10.5 µM (inactive); with CCRF-CEM it was 2.2 µM (inactive); in the assay with MDA-N it was 64 µM (inactive); in the assay on EKVX, 9.98 µM (inactive). Also, the GI50 was 17.1 µM (inactive) in the assay with UACC-62; 23.4 µM (inactive) in the assay with OVCAR-5; 2.26 µM (inactive) in the assay with HT-29; 1.5 µM (inactive) in the assay with HOP-92; 31 µM (inactive) in the assay on ACHN; 5.55 µM (inactive) in the assay with BT-549. In addition, the GI50 in the assay with U-251 is 2.64 µM (inactive).
Turning to `Cc1c(C#N)c2nnn(-c3cccc(Cl)c3)c(=O)n2c1-c1ccccc1`, the GI50 was 2.03 µM (inactive) with HCT-116; 8.61 µM (inactive) in the assay on OVCAR-4; 0.849 µM (active) in the assay with COLO 205; 32.3 µM (inactive) in the assay with SK-MEL-28; 3.28 µM (inactive) in the assay with HL-60; 0.301 µM (active) in the assay on SR. Besides, the GI50 with SW-620 is 4.3 µM (inactive); with NCI-H23 it was 8.77 µM (inactive); with LOX IMVI, 7.5 µM (inactive); with NCI-H460, 3.15 µM (inactive); with CCRF-CEM, 3.66 µM (inactive); in the assay on MDA-N, 0.428 µM (active). For the same compound, the GI50 in the assay on EKVX is 5.69 µM (inactive); in the assay with UACC-62 it was 4.43 µM (inactive); with OVCAR-5 it was 3.75 µM (inactive); in the assay with HT-29 it was 1.28 µM (inactive); in the assay with HOP-92 it was 26 µM (inactive); with ACHN, 6.4 µM (inactive). Besides, the GI50 in the assay on BT-549 is 18.1 µM (inactive); in the assay on U-251, 2.33 µM (inactive).
Take `C=CC[C@@]1(C)CCCCCCCCC[C@@](C)(CC=C)C1=O`: the GI50 was 32.9 µM (inactive) in the assay on HCT-116; > 100 µM (inactive) with OVCAR-4; 19.6 µM (inactive) in the assay on COLO 205; 34.1 µM (inactive) in the assay with SK-MEL-28; 20.7 µM (inactive) in the assay on HL-60; 27.5 µM (inactive) with SR. Moreover, the GI50 is 24.6 µM (inactive) in the assay on SW-620; 25.5 µM (inactive) in the assay on NCI-H23; 18.1 µM (inactive) in the assay on LOX IMVI; 24.4 µM (inactive) in the assay on NCI-H460; 20.2 µM (inactive) with CCRF-CEM; 50.8 µM (inactive) with MDA-N. Further, the GI50 with EKVX is 38.4 µM (inactive); with UACC-62 it was 27.9 µM (inactive); in the assay with OVCAR-5, > 100 µM (inactive); in the assay on HT-29, 18.7 µM (inactive); with HOP-92, 46.8 µM (inactive); in the assay on ACHN it was 34.6 µM (inactive). The figures for the GI50 with BT-549 and in the assay with U-251 were 27.4 µM (inactive) and 18.9 µM (inactive), respectively.
Regarding `O=C1Nc2ccc(Br)cc2/C1=N/c1ccc2c(c1)OCO2`, the GI50 is 17.4 µM (inactive) with HCT-116; 3.72 µM (inactive) in the assay with OVCAR-4; 16.9 µM (inactive) in the assay with COLO 205; 39 µM (inactive) in the assay on SK-MEL-28; 13.2 µM (inactive) with HL-60; 15.1 µM (inactive) in the assay on SR. Further, the GI50 with SW-620 is 22.4 µM (inactive); in the assay with NCI-H23, 37.2 µM (inactive); in the assay with LOX IMVI, 23.1 µM (inactive); with NCI-H460 it was 22.5 µM (inactive); in the assay on CCRF-CEM, 14.7 µM (inactive); with MDA-N it was 15.7 µM (inactive). Also, the GI50 is 25.8 µM (inactive) with EKVX; 15.7 µM (inactive) with UACC-62; 22.8 µM (inactive) in the assay on OVCAR-5; 17.4 µM (inactive) in the assay with HT-29; 50.1 µM (inactive) in the assay on HOP-92; 23.7 µM (inactive) in the assay with ACHN. For the same compound, the GI50 in the assay with BT-549 is 19.8 µM (inactive); in the assay with U-251, 12.7 µM (inactive).
For `CCCCCC/C=C\CCCCCCCCCC1=C(CN2CCN(C)CC2)C(=O)C=C(OC)C1=O`, the GI50 in the assay on HCT-116 was 2.14 µM (inactive); in the assay with OVCAR-4, 1.76 µM (inactive); in the assay with COLO 205, 1.71 µM (inactive); with SK-MEL-28 it was 13.6 µM (inactive); with HL-60 it was 0.881 µM (active); with SR it was 0.0578 µM (active). The GI50 in the assay on SW-620 is 1.59 µM (inactive); in the assay on NCI-H23, 4.57 µM (inactive); in the assay with LOX IMVI, 3.8 µM (inactive); in the assay on NCI-H460, 5.73 µM (inactive); in the assay on CCRF-CEM, 0.465 µM (active); in the assay on MDA-N, 8.05 µM (inactive). In addition, the GI50 in the assay with EKVX is 13.6 µM (inactive); in the assay with UACC-62, 12.9 µM (inactive); with OVCAR-5 it was 15.2 µM (inactive); in the assay on HT-29, 7.28 µM (inactive); in the assay on HOP-92, 2.64 µM (inactive); with ACHN, 3.28 µM (inactive). Moreover, the GI50 with BT-549 was 3.87 µM (inactive).
As to `O=C1/C(=C/c2ccc(Cl)cc2)N=C(c2ccccc2)N1c1nc2c(Cl)cc(Cl)cc2s1`, the GI50 is 20 µM (inactive) with HCT-116; 30.9 µM (inactive) in the assay on OVCAR-4; 37.9 µM (inactive) with COLO 205; 44.5 µM (inactive) in the assay on SK-MEL-28; 17.3 µM (inactive) with HL-60; 14.3 µM (inactive) in the assay on SR. Further, the GI50 in the assay on SW-620 is 30.7 µM (inactive); with LOX IMVI, 22.4 µM (inactive); with NCI-H460 it was 28.6 µM (inactive); in the assay on CCRF-CEM, 3.45 µM (inactive); with MDA-N, 17.5 µM (inactive); in the assay on EKVX, 14.3 µM (inactive). The GI50 in the assay with UACC-62 is 28.4 µM (inactive); with OVCAR-5 it was 35.2 µM (inactive); with HT-29, 23.9 µM (inactive); in the assay with HOP-92 it was 26.2 µM (inactive); in the assay on ACHN, 31.7 µM (inactive); with BT-549 it was 28.5 µM (inactive). For the same compound, in the assay on U-251, the GI50 is 19.7 µM (inactive).
Consider `CCN(CC)c1ccc2cc(-c3nc(O)c4ccccc4n3)c(=N)oc2c1`, for which the GI50 with HCT-116, with OVCAR-4, in the assay with COLO 205, with SK-MEL-28, in the assay with HL-60 and with SR was > 100 µM (inactive) throughout. The GI50 in the assay on SW-620, in the assay with LOX IMVI, with NCI-H460, with CCRF-CEM, in the assay on MDA-N and with EKVX was > 100 µM (inactive) each time. Also, the GI50 with UACC-62, in the assay on OVCAR-5, with HT-29, with HOP-92, in the assay with ACHN and in the assay with BT-549 was > 100 µM (inactive) each time. Besides, the GI50 in the assay with U-251 was > 100 µM (inactive).
With `N#Cc1c(-c2ccccc2)[nH]c2ccccc2c1=O`, the GI50 with HCT-116 was 87.5 µM (inactive); with OVCAR-4, > 100 µM (inactive); in the assay on COLO 205 it was > 100 µM (inactive); in the assay on SK-MEL-28, > 100 µM (inactive); in the assay with HL-60 it was 90.4 µM (inactive); in the assay on SR, > 100 µM (inactive). Besides, the GI50 was 91 µM (inactive) with SW-620; > 100 µM (inactive) with LOX IMVI; > 100 µM (inactive) in the assay on NCI-H460; > 100 µM (inactive) in the assay on CCRF-CEM; 33.4 µM (inactive) in the assay with MDA-N; > 100 µM (inactive) in the assay with EKVX. For the same compound, the GI50 in the assay on UACC-62 is 73.8 µM (inactive); in the assay with OVCAR-5, > 100 µM (inactive); with HT-29, > 100 µM (inactive); with HOP-92, > 100 µM (inactive); in the assay on ACHN, > 100 µM (inactive); with BT-549, 25.8 µM (inactive).
